According to patent US20240199623A1 (ILDONG PHARMACEUTICAL CO., LTD., priority 2020, published 2024):

Molecular target: human wild type-CFTR (Homo sapiens, UniProt P13569)
Experiment: Cell-based YFP assay
Parameters: expressed in transfected cells; host or cells: CHO-K1 (Chinese hamster ovary)
Conditions: CHO-K1 cells expressing human wild type-CFTR and YFP-H148Q/I152L; forskolin 20 μM = 100% activity; read-out: Cell-based YFP Assay (EC50) Concentration Range
In short: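 I⁻-driven YFP fluorescence quenching at 37 °C: 2 s baseline, addition of 140 mM iodide solution, then 14 s of readings at 0.4 s intervals. Cells were CHO-K1 expressing human wild-type CFTR plus YFP-H148Q/I152L. EC50 derived from averaged triplicates.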

Sequence of human wild type-CFTR (P13569 whole entry): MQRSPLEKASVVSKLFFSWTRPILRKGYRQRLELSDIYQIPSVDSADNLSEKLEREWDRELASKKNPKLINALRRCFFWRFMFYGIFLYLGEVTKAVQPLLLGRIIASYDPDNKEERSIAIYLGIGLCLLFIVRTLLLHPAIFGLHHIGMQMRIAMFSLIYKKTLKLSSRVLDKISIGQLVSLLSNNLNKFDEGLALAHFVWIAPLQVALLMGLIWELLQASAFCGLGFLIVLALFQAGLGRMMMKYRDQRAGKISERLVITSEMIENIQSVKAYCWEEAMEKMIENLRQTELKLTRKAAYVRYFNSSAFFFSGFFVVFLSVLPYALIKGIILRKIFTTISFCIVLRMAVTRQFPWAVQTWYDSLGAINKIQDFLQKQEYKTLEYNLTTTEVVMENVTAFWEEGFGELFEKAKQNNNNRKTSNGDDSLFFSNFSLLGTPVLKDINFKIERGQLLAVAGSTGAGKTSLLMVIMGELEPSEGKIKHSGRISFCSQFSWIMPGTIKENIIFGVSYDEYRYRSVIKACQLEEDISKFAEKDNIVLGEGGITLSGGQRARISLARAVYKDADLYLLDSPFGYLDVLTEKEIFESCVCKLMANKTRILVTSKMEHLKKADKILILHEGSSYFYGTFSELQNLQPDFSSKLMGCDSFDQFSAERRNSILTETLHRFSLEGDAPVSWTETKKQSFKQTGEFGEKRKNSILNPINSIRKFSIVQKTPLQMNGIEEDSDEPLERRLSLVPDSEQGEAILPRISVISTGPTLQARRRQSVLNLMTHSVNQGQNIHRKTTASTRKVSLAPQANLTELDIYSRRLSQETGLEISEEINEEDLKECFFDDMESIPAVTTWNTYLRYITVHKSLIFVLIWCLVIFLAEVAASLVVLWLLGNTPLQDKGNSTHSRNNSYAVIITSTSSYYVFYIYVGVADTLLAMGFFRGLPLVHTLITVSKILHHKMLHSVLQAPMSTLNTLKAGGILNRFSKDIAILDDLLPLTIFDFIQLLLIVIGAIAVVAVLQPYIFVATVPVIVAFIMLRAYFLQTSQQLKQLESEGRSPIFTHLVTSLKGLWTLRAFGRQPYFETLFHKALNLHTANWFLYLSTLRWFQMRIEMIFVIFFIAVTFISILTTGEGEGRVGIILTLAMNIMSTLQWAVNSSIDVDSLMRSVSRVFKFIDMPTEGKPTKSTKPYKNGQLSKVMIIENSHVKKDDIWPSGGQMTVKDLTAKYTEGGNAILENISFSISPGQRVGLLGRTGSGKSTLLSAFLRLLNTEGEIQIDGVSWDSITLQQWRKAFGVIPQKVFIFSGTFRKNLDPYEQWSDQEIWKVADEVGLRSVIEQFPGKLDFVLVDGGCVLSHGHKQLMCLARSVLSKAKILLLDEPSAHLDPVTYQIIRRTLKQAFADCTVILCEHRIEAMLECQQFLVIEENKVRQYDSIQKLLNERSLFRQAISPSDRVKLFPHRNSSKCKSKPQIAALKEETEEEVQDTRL

| Structure (SMILES) | EC50 [nM] |
| --- | --- |
| COc1ccc(-c2ccnc3cc(C(=O)NCC(=O)O)nn23)cc1OC [Compound 22, (7-(3,4-dimethoxyphenyl)pyrazolo[1,5-a]pyrimidine-2-carbonyl) glycine] | ≥ 2000 |
| COc1ccc(-c2ccnc3cc(C(=O)N4C[C@H](C)NC[C@H]4C)nn23)cc1OC [Compound 360, (7-(3,4-dimethoxyphenyl)pyrazolo[1,5-a]pyrimidin-2-yl) ((2R,5S)-2,5-dimethylpiperazin-1-yl)methanone] | 200 to 2000 |
| CCOc1ccc(NC(=O)c2cc3nccc(-c4ccc(F)c(Cl)c4)n3n2)cc1 [Compound 316, 7-(3-chloro-4-fluorophenyl)-N-(4-ethoxyphenyl)pyrazolo [1,5-a]pyrimidine-2-carboxamide] | ≥ 2000 |
| COc1ccc(-c2ccnc3cc(C(=O)N4CCc5ccc(C(=O)N6CCN(C)CC6)cc5C4)nn23)cc1OC [Compound 237, (7-(3,4-dimethoxyphenyl)pyrazolo[1,5-a]pyrimidin-2-yl)(7-(4-methylpiperazine-1-carbonyl)-3,4-dihyroisoquinolin-2(1H)-yl)methanone] | ≥ 2000 |
| CCOc1ccc(NC(=O)c2cc3nccc(-c4ccc(N(C)C)cc4)n3n2)cc1 [Compound 324, 7-(4-(dimethylamino)phenyl)-N-(4-ethoxyphenyl)pyrazolo [1,5-a]pyrimidine-2-carboxamide] | ≥ 2000 |
| COc1ccc(-c2ccnc3cc(C(=O)N4CCN(C(=O)c5ccccc5)C5(CC5)C4)nn23)cc1OC [Compound 367, (4-benzoyl-4,7-diazaspiro [2.5]octan-7-yl)(7-(3,4-dimethoxyphenyl)pyrazolo[1,5-a]pyrimidin-2-yl)methanone] | < 200 |
| COc1ccc(-c2ccnc3cc(C(=O)N[C@H]4CC[C@@H](C(=O)OCc5ccccn5)CC4)nn23)cc1OC [Compound 247, pyridin-2-ylmethyl (1S,4S)-4-(7-(3,4-dimethoxyphenyl)pyrazolo [1,5-a]pyrimidine-2-carboxamido)cyclohexane-1-carboxylate] | 200 to 2000 |
| COc1ccc(-c2ccnc3cc(C(=O)Nc4ccc(C(=O)N[C@@H](CCSC)C(=O)O)cc4)nn23)cc1OC [Compound 87, (4-(7-(3,4-dimethoxyphenyl)pyrazolo[1,5-a]pyrimidine-2-carboxamido)benzoyl)-L-methionine] | ≥ 2000 |
| COc1ccc(-c2ccnc3cc(C(=O)N4CCN(C(=O)OC(C)(C)C)C(C)(C)C4)nn23)cc1OC [Compound 113, tert-butyl 4-(7-(3,4-dimethoxyphenyl)pyrazolo [1,5-a]pyrimidine-2-carbonyl)-2,2-dimethylpiperazine-1-carboxylate] | < 200 |
| COc1ccc(-c2ccnc3cc(C(=O)Nc4ccc(C(=O)N5CCN(C)CC5)c(C)c4)nn23)cc1OC [Compound 215, 7-(3,4-dimethoxyphenyl)-N-(3-methyl-4-(4-methylpiperazine-1-carbonyl)phenyl)pyrazolo [1,5-a]pyrimidine-2-carboxamide] | ≥ 2000 |
| CCCOC(=O)[C@H]1CC[C@H](NC(=O)c2cc3nccc(-c4ccc(OC)c(OC)c4)n3n2)CC1 [Compound 331, propyl (1R,4R)-4-(7-(3,4-dimethoxyphenyl)pyrazolo [1,5-a]pyrimidine-2-carboxamido)cyclohexane-1-carboxylate] | 200 to 2000 |
| COc1ccc(-c2ccnc3cc(C(=O)Nc4ccc(C(=O)N5CCN(C)CC5)nc4)nn23)cc1OC [Compound 265, 7-(3,4-dimethoxyphenyl)-N-(6-(4-methylpiperazine-1-carbonyl)pyridin-3-yl)pyrazolo[1,5-a] pyrimidine-2-carboxamide] | ≥ 2000 |
| COc1ccc(-c2ccnc3cc(C(=O)O)nn23)cc1OC [Compound 5, 7-(3,4-dimethoxyphenyl)pyrazolo[1,5-a]pyrimidine-2-carboxylic acid] | ≥ 2000 |
| COc1ccc(-c2ccnc3cc(C(=O)N4CCN(C(=O)c5cccc(F)c5)[C@@H](C)C4)nn23)cc1OC [Compound 263, (S)-(7-(3,4-dimethoxyphenyl)pyrazolo[1,5-a]pyrimidin-2-yl)(4-(3-fluorobenzoyl)-3-methylpiperazin-1-yl) methanone] | 200 to 2000 |
| COc1ccc(-c2ccnc3cc(C(=O)Nc4cccc(C(=O)N5CCNCC5)c4)nn23)cc1OC [Compound 80, 7-(3,4-dimethoxyphenyl)-N-(3-(piperazine-1-carbonyl)phenyl)pyrazolo [1,5-a]pyrimidine-2-carboxamide] | ≥ 2000 |
| COc1ccc(-c2ccnc3cc(C(=O)N[C@H]4CC[C@@H](O)CC4)nn23)cc1OC [Compound 102, 7-(3,4-dimethoxyphenyl)-N-((1S,4S)-4-hydroxycyclohexyl) pyrazolo[1,5-a]pyrimidine-2-carboxamide] | ≥ 2000 |
| COc1ccc(NC(=O)c2cc3nccc(-c4ccc(OC)c(OC)c4)n3n2)c(F)c1 [Compound 325, 7-(3,4-dimethoxyphenyl)-N-(2-fluoro-4-methoxyphenyl)pyrazolo [1,5-a]pyrimidine-2-carboxamide] | < 200 |

Other lines, results leading:

| EC50 [nM] | Structure (SMILES) |
| --- | --- |
| ≥ 2000 | COc1ccc(-c2ccnc3cc(C(=O)Nc4ccc(C(=O)N[C@@H](CC(=O)O)C(=O)O)cc4)nn23)cc1OC [Compound 88, (4-(7-(3,4-dimethoxyphenyl)pyrazolo[1,5-a]pyrimidine-2-carboxamido)benzoyl)-L-aspartic acid] |
| 200 to 2000 | COc1ccc(-c2ccnc3cc(C(=O)N4CCNC5(CC5)C4)nn23)cc1OC [Compound 361, (7-(3,4-dimethoxyphenyl)pyrazolo[1,5-a]pyrimidin-2-yl)(4,7-diazaspiro[2.5]octan-7-yl)methanone] |
| 200 to 2000 | COc1ccc(-c2ccnc3cc(C(=O)N4CCN(C(=O)c5ccc(Cl)cc5)[C@@H](C)C4)nn23)cc1OC [Compound 262, (S)-(4-(4-chlorobenzoyl)-3-methylpiperazin-1-yl) (7-(3,4-dimethoxyphenyl)pyrazolo[1,5-a]pyrimidin-2-yl)methanone] |
| ≥ 2000 | COc1ccc(-c2ccnc3cc(C(=O)Nc4ccc(C(=O)O)c(F)c4)nn23)cc1OC [Compound 278, 4-(7-(3,4-dimethoxyphenyl)pyrazolo[1,5-a]pyrimidine-2-carboxamido)-2-fluorobenzoic acid] |
| 200 to 2000 | CCCCOC(=O)c1ccc(NC(=O)c2cc3nccc(-c4ccc(OC)c(OC)c4)n3n2)cc1 [Compound 336, butyl 4-(7-(3,4-dimethoxyphenyl)pyrazolo[1,5-a]pyrimidine-2-carboxamido) benzoate] |
| < 200 | COc1ccc(-c2ccnc3cc(C(=O)N4C[C@H](C)N(C(=O)c5ccccc5)C[C@H]4C)nn23)cc1OC [Compound 365, ((2R,5S)-4-benzoyl-2,5-dimethylpiperazin-1-yl)(7-(3,4-dimethoxyphenyl)pyrazolo[1,5-a]pyrimidin-2-yl)methanone] |
| 200 to 2000 | COc1ccc(-c2ccnc3cc(C(=O)N4CC[C@@H](NC(=O)OC(C)(C)C)C4)nn23)cc1OC [Compound 115, tert-butyl (R)-(1-(7-(3,4-dimethoxyphenyl)pyrazolo [1,5-a]pyrimidine-2-carbonyl)pyrrolidin-3-yl)carbamate] |
| 200 to 2000 | COc1ccc(-c2ccnc3cc(C(=O)N4CC(C)N(C(=O)c5ccccc5)C(C)C4)nn23)cc1OC (stereo not shown) [Compound 348, (4-benzoyl-3,5-dimethylpiperazin-1-yl) (7-(3,4-dimethoxyphenyl)pyrazolo [1,5-a]pyrimidine-2-yl)methanone] |
